Source: the supplement of paper PMC10307832

How the values were obtained:
Assay in all cases: relative viability (nuclei count vs DMSO), 5 days (fraction); higher = more cells survive
TPCA-1 + Crizotinib = compound: C1=CC(=CC=C1C2=CC(=C(S2)NC(=O)N)C(=O)N)F [TPCA-1] + C[C@@H](Oc1cc(-c2cnn(C3CCNCC3)c2)cnc1N)c1c(Cl)ccc(F)c1Cl [Crizotinib] (partner 1 µM)
How it was run: (§1)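 Lung cancer cell lines in 1536-well plates got either a single drug or a fixed anchor-drug dose together with five library-drug doses (not always all listed) in √10 steps, by pin tool, on the day after seeding. Nuclei were counted after 5 days, and relative viability is the treated-to-vehicle ratio of nuclei counts. Values are medians of duplicate plates.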

TPCA-1 + Vorinostat = compound: C1=CC(=CC=C1C2=CC(=C(S2)NC(=O)N)C(=O)N)F [TPCA-1] + O=C(CCCCCCC(=O)Nc1ccccc1)NO [Vorinostat] (partner 1 µM)
How it was run: as §1

[1] = compound: C[C@]12O[C@H](C[C@]1(O)CO)n1c3ccccc3c3c4c(c5c6ccccc6n2c5c31)CNC4=O [Lestaurtinib] + O=C(CCCCCCC(=O)Nc1ccccc1)NO [Vorinostat] (partner 1 µM)
How it was run: as §1

TPCA-1 + Decitabine = compound: C1=CC(=CC=C1C2=CC(=C(S2)NC(=O)N)C(=O)N)F [TPCA-1] + Nc1ncn([C@H]2C[C@H](O)[C@@H](CO)O2)c(=O)n1 [Decitabine] (partner 2 µM)
How it was run: as §1

Row | Cell Line | relative viability (TPCA-1 + Crizotinib; first compound 0.04 µM) | relative viability (TPCA-1 + Crizotinib; first compound 0.1265 µM) | relative viability (TPCA-1 + Crizotinib; first compound 0.4 µM) | relative viability (TPCA-1 + Crizotinib; first compound 1.265 µM) | relative viability (TPCA-1 + Crizotinib; first compound 4 µM) | relative viability (TPCA-1 + Vorinostat; first compound 0.04 µM) | relative viability (TPCA-1 + Vorinostat; first compound 0.1265 µM) | relative viability (TPCA-1 + Vorinostat; first compound 0.4 µM) | relative viability (TPCA-1 + Vorinostat; first compound 1.265 µM) | relative viability (TPCA-1 + Vorinostat; first compound 4 µM) | relative viability ([1]; first compound 0.005 µM) | relative viability ([1]; first compound 0.01581 µM) | relative viability ([1]; first compound 0.05 µM) | relative viability ([1]; first compound 0.1581 µM) | relative viability ([1]; first compound 0.5 µM) | relative viability (TPCA-1 + Decitabine; first compound 0.04 µM) | relative viability (TPCA-1 + Decitabine; first compound 0.1265 µM) | relative viability (TPCA-1 + Decitabine; first compound 0.4 µM) | relative viability (TPCA-1 + Decitabine; first compound 1.265 µM) | relative viability (TPCA-1 + Decitabine; first compound 4 µM)
1 | NCI-H1944 | 1.18 | 1.03 | 1.02 | 1.02 | 0.682 | 0.648 | 0.709 | 0.675 | 0.512 | 0.521 | 0.556 | 0.521 | 0.693 | 0.408 | 0.205 | 0.526 | 0.446 | 0.477 | 0.475 | 0.383
2 | NCI-H358 | 0.759 | 0.559 | 0.541 | 0.39 | 0.264 | 0.695 | 0.576 | 0.634 | 0.409 | 0.168 | 0.691 | 0.539 | 0.382 | 0.145 | 0.117 | 0.224 | 0.215 | 0.217 | 0.214 | 0.153
3 | NCI-H1734 | 0.706 | 0.584 | 0.704 | 0.642 | 0.575 | 0.957 | 0.737 | 0.88 | 0.839 | 0.279 | 0.872 | 0.824 | 0.525 | 0.258 | 0.212 | 0.58 | 0.468 | 0.531 | 0.517 | 0.454
4 | A-427 | 0.856 | 0.817 | 1.09 | 0.879 | 0.625 | 0.891 | 0.806 | 0.927 | 0.912 | 0.227 | 0.778 | 0.995 | 0.766 | 0.447 | 0.208 | 0.62 | 0.535 | 0.591 | 0.564 | 0.504
5 | RERF-LC-KJ | 0.875 | 0.815 | 0.835 | 0.792 | 0.758 | 0.76 | 0.688 | 0.664 | 0.671 | 0.46 | 0.56 | 0.683 | 0.538 | 0.588 | 0.375 | 0.715 | 0.598 | 0.656 | 0.612 | 0.548
6 | NCI-H727 | 0.82 | 0.677 | 1.05 | 0.64 | 0.706 | 1.21 | 0.947 | 1.26 | 1.25 | 1.31 | 1.23 | 1.35 | 1.17 | – | 0.625 | 0.946 | 0.787 | 0.943 | 0.788 | 0.576
7 | LCLC-97TM1 | 0.347 | 0.325 | 0.568 | 0.28 | 0.15 | 0.844 | 0.488 | 0.905 | 0.365 | 0.0988 | – | 0.744 | 0.389 | 0.187 | 0.155 | 0.274 | 0.23 | 0.214 | 0.247 | 0.243
8 | BEN | 0.81 | 0.722 | 0.713 | 0.979 | 0.685 | 0.56 | 0.543 | 0.624 | 0.634 | 0.441 | 0.631 | 0.704 | 0.59 | 0.477 | 0.309 | 0.875 | 0.625 | 0.813 | 0.838 | 0.387
